In publication PMC11265914, “Unravelling nicotinic receptor and ligand features underlying neonicotinoid knockdown actions on the malaria vector mosquito Anopheles gambiae” (Open Biology, 2024):

Target: T1, Ls-AChBP (Lymnaea stagnalis, UniProt P58154, Q74R)
T1 construct: over-expressed in Pichia pastoris, deglycosylated, purified; homo-pentamer
Experiment: X-ray crystal structure of the complex
Format: binding
Conditions: cocrystallized with 1 mM dinotefuran, PEG4000, 0.2 M sodium citrate pH 5.4, 20 °C; all five orthosteric sites

For CNC(=N[N+](=O)[O-])NC[C@@H]1CCOC1 [dinotefuran], the “X-ray crystal structure of the complex” value was “Dinotefuran bound to all five orthosteric sites of the protein”.
